Experimental data taken from patent US20260183303A1, “PDK1 REGULATORY COMPOUND AND COMPOSITION CONTAINING THE SAME” (PROVIBIO CO., LTD., priority 2024, published 2026).

Experiments:
[1] = system: psoriasis-induced mice; test: In vivo psoriasis model (Aldara cream, Imiquimod); set-up: species or system BALB/c mice
Procedure: To verify the therapeutic effect of the compound according to the present invention on psoriasis, a psoriasis animal model was established as follows, and the compound according to the present invention was administered to evaluate the alleviation of skin lesions and changes in immune cell patterns.
For the establishment of the psoriasis animal model, BALB/c mice (7 weeks old, female, 20 g) were purchased from HanabioTech Co., Ltd. and acclimatized to the rearing environment for one week.
Subsequently, the hair on the mouse back was shaved using a hair removal device for the first time, and then completely shaved using a depilatory cream (Nicrin Cream (80% thioglycolic acid, II Dong Pharmaceutical)) for the second time. […]
Body weights of mice in each group were measured on days 1, 4, and 8 after the start of injection and psoriasis induction. […]
To evaluate the therapeutic effect in a psoriasis-induced mouse model, the PASI (Psoriasis Area and Severity Index) score was measured.
The PASI score is based on three criteria: erythema, scaling, and skin thickness, each scored from 0 (none) to 4 (severe). […]
Observations were conducted daily at the same time, and the same observer visually assessed each criterion and recorded the scores, with the results presented in FIG. 13. […]
All samples were measured in duplicate, and the absorbance was measured at 450 nm using a microplate reader.

[2] = molecular target: T1, full-length PDK1 (PDK1-FL) (Homo sapiens, UniProt O15530); test: Binding affinity by Microscale Thermophoresis (MST), full-length PDK1; settings: ratio of Kd values
T1 construct: full-length (PDK1-FL) protein of human-derived PDK1; made in house; host or cells: Sf9 insect cells, baculovirus
T1 sequence (O15530 1-556): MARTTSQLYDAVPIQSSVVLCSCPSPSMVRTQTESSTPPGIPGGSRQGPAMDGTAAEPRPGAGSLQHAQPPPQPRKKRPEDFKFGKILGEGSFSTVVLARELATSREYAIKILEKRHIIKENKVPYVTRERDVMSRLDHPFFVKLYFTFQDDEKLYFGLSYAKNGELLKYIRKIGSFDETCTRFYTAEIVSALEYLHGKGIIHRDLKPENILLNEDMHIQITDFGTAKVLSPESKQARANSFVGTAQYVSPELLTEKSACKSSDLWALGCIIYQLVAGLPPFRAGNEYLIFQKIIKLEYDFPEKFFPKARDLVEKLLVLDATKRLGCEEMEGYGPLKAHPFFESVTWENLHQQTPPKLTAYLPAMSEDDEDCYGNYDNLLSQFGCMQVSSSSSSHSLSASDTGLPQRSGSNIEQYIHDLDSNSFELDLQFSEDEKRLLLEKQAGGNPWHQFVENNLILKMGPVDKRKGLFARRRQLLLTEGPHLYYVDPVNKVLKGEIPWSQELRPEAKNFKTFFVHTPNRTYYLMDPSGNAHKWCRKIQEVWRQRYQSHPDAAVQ
Procedure: Experimental Example 16: Binding affinity experiment with PDK1 using MST Microscale Thermophoresis (MST) analysis was performed to quantitatively measure the binding affinity between PDK1 protein and substrate peptides (PDKTide) or the company-developed low-molecular-weight compound (GO88).
The target proteins were the full-length (PDK1-FL) protein of human-derived PDK1 and the Protein Kinase Domain (PKD) fragment, which were expressed using a baculovirus expression system in insect cell lines (Sf9).
The purity of the purified proteins was confirmed by SDS-PAGE and Coomassie Brilliant Blue staining.
The purified protein was labeled with a fluorescent label using the Monolith NT™ RED-NHS Protein Fluorescent Labeling Kit (NanoTemper).
Specifically, 20 μM of the protein was dissolved in PBS (pH 7.4) buffer, mixed with the fluorescent reagent, and reacted at room temperature under dark conditions for 30 minutes. The mixture was then buffered with MST analysis buffer (50 mM HEPES, 150 mM NaCl, 1 mM DTT, 0.05% Tween-20, pH 7.5). […]
The reaction samples were injected into an MST-specific capillary (NanoTemper) and analyzed using a Monolith NT.115 device (NanoTemper) under laser intensity conditions. […]
The measured data were analyzed using MO.Affinity Analysis software (NanoTemper), and the dissociation constant (Kd) was calculated from the binding curve.

[3] = molecular target: T2, PDK1 (phosphoinositide-dependent kinase 1) phosphorylation (Homo sapiens, UniProt O15530); test: PDK1 phosphorylation (pPDK1-PE) by flow cytometry in SU-DHL-8 cells; assay type: cell-based; settings: 24 hours, compared to the control group
T2 construct: endogenous in cells; host or cells: SU-DHL-8 (ATCC CRL-2961)
T2 sequence (O15530 1-556): T1 sequence (O15530 1-556)
Procedure: After stabilizing the cells, the compound of the present invention was added, and the cells were cultured for 24 hours.
After drug treatment, the cells were harvested, and the Fc receptor blocking process was performed. The cells were then fixed and permeabilized using the Intracellular Staining Kit (Cat. No. BD554715) from BD Biosciences. Subsequently, the intracellular pPDK1 was stained using the pPDK1-PE fluorescently labeled antibody (BD Biosciences).
Referring to the figure, the vertical axis represents the phosphorylation level of PDK1 (phospho-PDK1 expression level), and the horizontal axis denotes the concentration-dependent treatment conditions of each compound.

[4] = system: bleomycin-induced pulmonary fibrosis mice; test: Pulmonary fibrosis model induced by bleomycin intratracheal administration; assay type: in vivo, Balb/c mice; settings: BLM mice, vs BLM-treated group
Source text: To evaluate the therapeutic efficacy of the compound according to the present invention against pulmonary fibrosis, an animal model of pulmonary fibrosis induced by bleomycin intratracheal administration was established.
For this purpose, 8-week-old male Balb/c mice were subjected to general anesthesia using an inhalation anesthetic (2-3% isoflurane in oxygen), followed by disinfection of the neck region, skin incision, and exposure of the trachea.
Bleomycin (Sigma-Aldrich, USA)was directly administered into the trachea at a concentration of 5 mg/kg in a solution of […].
Two days prior to Bleomycin administration, the compound of the present invention or the comparative drug was administered intraperitoneally at the specified concentration and dose, and the administration was continued once daily for a total of 14 days.
The experimental groups included Normal, Bleomycin alone (BLM), and BLM plus the compound of the present invention (BLM+G088, 0.2 mg/kg).
Ten days later, the mice were euthanized humanely using carbon dioxide gas, the trachea was incised, and PBS was injected into the trachea to remove blood from the lungs.
The lung tissue washed with PBS was excised, fixed in 4% paraformaldehyde solution for 24 hours, and then paraffin blocks and tissue sections were prepared. The prepared sections were subjected to pathological analysis using H&E, Masson's trichrome, and Sirius red staining.
Additionally, immunohistochemical (IHC) staining was performed for α-SMA (α-smooth muscle actin), an indicator of lung fibroblast activation.

[5] = system: human lung fibroblasts MRC-5 cell lines; test: Collagen I Western blot in TGF-β treated MRC-5 cells; assay type: cell-based; settings: MRC-5, TGF-β (5 ng/ml), G088 0.5 μM and 1 M (so in the source), 24 hours
Procedure: To confirm that the compound of the present invention directly acts on fibrosis-related mechanisms, in vitro experiments were performed using human lung fibroblasts MRC-5 cell lines (Korea Cell Bank).
First, MRC-5 cells were seeded at 5×10^3 cells per well in a 6-well plate and stabilized for 24 hours.
Subsequently, experimental groups were established, including a control group, a group treated with TGF-β (5 ng/ml) alone, and groups treated with TGF-β and the compound G088 from the present invention at concentrations of 0.5 μM and […], respectively.
After treating each group with the drugs for 24 hours, the cell medium was removed, and the cells were washed twice with cold PBS. Then, RIPA lysis buffer containing phosphatase inhibitor and protease inhibitor was added to each group to extract proteins.
The extracted proteins were incubated at 4° C. for 30 minutes, then centrifuged at 13,000 rpm for 15 minutes, and the supernatant was collected. The total protein concentration was measured using the BCA protein quantification method.
Subsequently, the proteins were separated by SDS-PAGE, transferred to a PVDF membrane, and Western blot analysis was performed.
The expression levels of Collagen I, a marker related to pulmonary fibrosis, were confirmed, with GAPDH used as an internal control.

[6] = system: MRL/lpr mice with hair loss symptoms in the facial region; test: Hair loss treatment and hair follicle Ki-67 IHC in MRL/lpr mice; assay type: in vivo; settings: 41-week-old female MRL/lpr mice; GO15F (30 mg/kg), G048 (1 mg/kg), G088 (0.5 mg/kg) intraperitoneally once daily
Procedure: Additionally, in 41-week-old female MRL/lpr mice, the compounds GO15F (30 mg/kg), G048 (1 mg/kg), and G088 (0.5 mg/kg) were administered intraperitoneally once daily.
To confirm the proliferative activity of hair follicle cells in the skin tissue of these mice, the mice were sacrificed 14 days after administration of the compounds of the present invention, and Ki-67 immunohistochemistry […] was performed.
For this purpose, the excised skin tissue was fixed in formalin, embedded in paraffin blocks, and stained with a Ki-67-specific antibody on tissue sections prepared as slides.

| SMILES | efficacy in improving dermatological symptoms [1] | binding affinity of full-length PDK1 compared to the PDK fragment [2] | phospho-PDK1 expression level (inhibition of PDK1 phosphorylation) [3] | collagen deposition (Masson's trichrome, Sirius red) [4] | expression of α-SMA in lung tissue (IHC) [4] | protein expression of Collagen I [5] | hair growth on the facial region [6] |
| --- | --- | --- | --- | --- | --- | --- | --- |
| Nc1nc(NC(=O)CCCCCCCCCCCCN2CCN(CCO)CC2)nc2nc[nH]c12 [Compound 15, 12-[4-(2-Hydroxyethyl)Piperazin-1-Yl]Dodecyl-N-(6-Aminopurine-2-Yl)Carboxamide] | excellent efficacy in improving dermatological symptoms |  |  |  |  |  |  |
| Nc1ncccc1C(=O)NCCCCCCCCCCCCN1CCNCC1 [Compound G088] |  | six times stronger | stronger PDK1 inhibition | significantly reduced | significantly suppressed | inhibited in a concentration-dependent manner | hair growth was confirmed |
